Laboratory results from patent US20070141661A1, “Cell extract for high-functioned cell-free protein synthesis and method of preparing the extract” (priority 2003, published 2007).

Assays:
[1] = test system: wheat embryo cell-free protein synthesis; experiment: Wheat embryo cell-free protein synthesis, batch method, 14C-leucine incorporation with DHFR mRNA; assay type: biochemical; details: for Inhibition of protein synthesis, nucleotide added alone: 0.5 mM AMP or 0.25 mM GMP alone, not shown in figures; for Effect of standard sugar on protein synthesis: final concentration 0.5 mM, FIG. 2C; for Effect on protein synthesis when added back in an equivalent amount to highly functionalized protein synthesis solution: filtrate or components isolated from filtrate, FIG. 1B/2B; for Time until protein synthesis reaction terminated after adding back: filtrate or filtrate-derived component added in equivalent amount
Experimental: To an embryo extract solution, components necessary for translation were added and adjusted to prepare a translation reaction solution (30 mM HEPES-KOH, pH7.8, 100 mM potassium acetate, 2.7 mM magnesium acetate, 1.2 mM ATP, 0.25 mM GTP, 0.4 mM spermidine, 16 mM phosphocreatine, 40 μg/ml creatine kinase, 4 mM dithiothreitol, each 0.3 mM 19 kinds of leucine-lacking L-amino acids, and 0.005% sodium azide). The concentration of the embryo extract solution was 40 OD 260 nm per 1 ml of translation reaction solution). To this translation reaction solution, mRNA encoding dihydrofolate reductase (DHFR) (0.32 mg/ml) and ^14C-leucine were added, and protein synthesis was conducted at 26° C. through a batch method. The amount of synthesized protein was determined by measuring radioactivity of ^14C-labeled leucine incorporated into an acid-insoluble fraction as follows: a 3MM Whatman filter was blotted with […] of the reaction solution, and the filter was dipped into an ice-cold 10% TCA (trichloroacetic acid) for an hour, and then boiled in 5% TCA solution for 10 minutes. This filter was recovered and from which TCA and water were removed using ethanol and ether (50:50 vol), dried, and then radioactivity incorporated into a heat-TCA-insoluble fraction was measured by a liquid scintillation counter (toluene scintillator).
Using these embryo extracts, following the method described in Example 1, and under a condition where the concentration of extract solution was 40 OD 260 nm, protein synthesis was conducted and their synthesis activities were compared. The activities of protein synthesis were determined by measuring radioactivities of ^14C/5 μL reaction solution, wherein ^14C had been incorporated into a heat-acid-insoluble fraction after a three hour-long reaction. As gelfiltration operation proceeded, the concentration of glucose in an extract solution was decreased, and completely corresponding to that, the activity of protein synthesis was increased, and simultaneously an extremely stabilized reaction solution for protein synthesis was produced.

ATP in reaction solution = experiment: Temporal change of ATP concentration during protein synthesis reaction (cellulose thin layer chromatography, UV 260 nm); assay type: biochemical, wheat; details: for Concentration of ATP in system after adding sugar: 0.5 mM, within an hour after reaction, data not shown
Experimental: Next, to study the relation between decrease in concentration of ATP and the inhibition and destabilization mechanism of protein synthesis reaction, temporal changes of concentration of ATP under incubation was measured in the present and absence of glucose. Experiment was conducted on chromatography using a cellulose thin layer plate (Avicel: purchased from Funakoshi Co., Ltd) and a developing solvent of isobutyric acid:0.5 M ammonia (5:3). Using a synthesis system prepared with an extract solution treated through Amicon ultramembrane six times, protein synthesis reaction was conducted with or without adding glucose (1 mM), and to samples fractionated with time, an equivalent amount of cold ethanol was added, then supernatants obtained from centrifugation at 10,000×g were used to fractionate nucleotides on a thin layer plate. Using standard nucleotides from a conventional method as a fractionation marker, ATP was extracted from fractions, which was scraped out from fluorescent blots visualized with irradiation of ultraviolet ray, and the values of ultraviolet absorption at 260 nm were measured, thereby temporary changes of concentration of ATP in a reaction solution were determined. In an experiment where glucose was not added, as reaction proceeded, the concentration of ATP in the reaction solution was decreased (large ● in FIG. 3B) and in three hours after the reaction, decreased to around 60%. Kinetics of this decrease in concentration of ATP is well consistent with a decrease in the concentration of glucose (● in FIG. 3A). […] Though data are not shown, when protein synthesis reaction was conducted using an extract solution of 25 OD 260 nm, a decrease in the concentration of ATP was hardly shown until four hours after reaction, and along with it, the protein synthesis reaction was sustained linearly almost for four hours.

[2] = test system: wheat embryo cell-free protein synthesis; experiment: Stability of protein synthesis activity after 3 h preincubation at 26° C. without mRNA, then solution exchange; assay type: biochemical; details: 0.5 mM, no mRNA or 14C-leucine during incubation, FIG. 2C
Experimental: Next, destabilization of protein synthesis was further examined. Namely, samples obtained before and after Amicon ultra-centrifugal filtration as described above (but mRNA and ^14C-leucine had not been contained), were incubated for three hours at 26° C. (hereinafter, described as preincubation), and then both reaction solutions were respectively passed through Sephadex G25 spin column which had been equilibrated with a translation solution (containing amino acids, energy sources, various ions and buffer) for changing to a fresh translation solution, and after that, mRNA and ^14C-leucine were added to measure the activity of protein synthesis.
Next, to confirm the destabilization phenomena of protein synthesis system resulting from the addition glucose and preincubation, the system was incubated in the presence of 0.5 mM glucose (the system contained neither mRNA or ^14C-leucine) and the stability was examined in the same manner as explained in FIG. 1B.

SMILES: Nc1ncnc2c1ncn2[C@@H]1O[C@H](COP(=O)(O)O)[C@@H](O)[C@H]1O [AMP]
- Inhibition of protein synthesis, nucleotide added alone [1]: inhibition of protein synthesis was not exhibited

SMILES: Nc1nc2c(ncn2[C@@H]2O[C@H](COP(=O)(O)O)[C@@H](O)[C@H]2O)c(=O)[nH]1 [GMP]
- Inhibition of protein synthesis, nucleotide added alone [1]: inhibition of protein synthesis was not exhibited

SMILES: O=C[C@@H](O)[C@H](O)[C@@H](O)[C@@H](O)CO [L-glucose]
- Effect of standard sugar on protein synthesis [1]: no inhibitory effects
- ATP remained after adding sugar (ATP in reaction solution; 1 mM added, FIG. 3B): ~50%

SMILES: C=C(OP(=O)(O)O)C(=O)O [Phosphoenolpyruvic acid]
- Effect of standard sugar on protein synthesis [1]: no inhibitory effects on protein synthesis

SMILES: O=C(CO)[C@@H](O)[C@H](O)[C@H](O)CO [fructose]
- Effect of standard sugar on protein synthesis [1]: strong protein synthesis inhibitory effects
- Concentration of ATP in system after adding sugar (ATP in reaction solution): below the detection limit

SMILES: O=C[C@H](O)[C@@H](O)[C@@H](O)[C@H](O)CO [galactose]
- Effect of standard sugar on protein synthesis [1]: strong protein synthesis inhibitory effects
- Concentration of ATP in system after adding sugar (ATP in reaction solution): below the detection limit

SMILES: O=C[C@H](O)[C@@H](O)[C@H](O)[C@H](O)CO [glucose, D-glucose]
- Protein synthesis capacity after preincubation in the presence of sugar [2]: irreversibly inactivates a protein synthesis capacity
- Effect on protein synthesis when added back in an equivalent amount to highly functionalized protein synthesis solution [1]: strong inhibitory and destabilization effects
- Time until protein synthesis reaction terminated after adding back [1]: two
- Effect of standard sugar on protein synthesis [1]: strong protein synthesis inhibitory effects
- ATP in the reaction solution after adding sugar (ATP in reaction solution; 1 mM added, in an hour, FIG. 3B): almost all ATP in the reaction solution was consumed

SMILES: O=C[C@H](O)[C@@H](O)[C@H](O)[C@H](O)COP(=O)(O)O [glucose-6-phosphate]
- Effect of standard sugar on protein synthesis [1]: strong protein synthesis inhibitory effects

SMILES: CC(=O)C(=O)O [pyruvic acid]
- Effect of standard sugar on protein synthesis [1]: no inhibitory effects on protein synthesis

SMILES: OC[C@H]1O[C@H](OC[C@H]2O[C@H](O[C@]3(CO)O[C@H](CO)[C@@H](O)[C@@H]3O)[C@H](O)[C@@H](O)[C@@H]2O)[C@H](O)[C@@H](O)[C@H]1O [raffinose]
- Effect on protein synthesis when added back in an equivalent amount to highly functionalized protein synthesis solution [1]: did not show inhibitory effects

SMILES: OC[C@H]1O[C@@](CO)(O[C@H]2O[C@H](CO)[C@@H](O)[C@H](O)[C@H]2O)[C@@H](O)[C@@H]1O [sucrose]
- Effect on protein synthesis when added back in an equivalent amount to highly functionalized protein synthesis solution [1]: strong inhibitory and destabilization effects
- Time until protein synthesis reaction terminated after adding back [1]: two
- Effect of standard sugar on protein synthesis [1]: strong protein synthesis inhibitory effects
- Concentration of ATP in system after adding sugar (ATP in reaction solution): below the detection limit
